Measurements as given in ChEMBL document CHEMBL1130860, “Thrombin receptor (PAR-1) antagonists. Heterocycle-based peptidomimetics of the SFLLR agonist motif” (Bioorg Med Chem Lett, 1998).
Numbered stars: 1 amine (or outer) side, 2 acyl side, 3 side chain; on linkers, the order of the positions; unused ones are H or OH. Square brackets hold non-standard residues; d marks the D form. Peptide text beside a SMILES is read from it. * marks the point of attachment. ξ: configuration not given here. Phe(4-F)ψ(2,4-Thz) = O=C(c1csc([C@H](Cc2ccc(F)cc2)N[*:1])n1)[*:2]; Phe(4-guanidino) = N=C(N)Nc1ccc(C[C@H](N)C(=O)O)cc1; X1 = COc1ccc(C[C@H](N[*:1])c2nc(C(=O)[*:2])cs2)cc1; Phe(4-F) = N[C@@H](Cc1ccc(F)cc1)C(=O)O; hArg = N=C(N)NCCCC[C@H](N)C(=O)O; Cha = N[C@@H](CC1CCCCC1)C(=O)O; Nphe = O=C(O)CNCc1ccccc1; X2 = O=C(/C=C/c1ccccc1)*; ξV = CC(C)C(N)C(=O)O; Sar = CNCC(=O)O

How the values were obtained:
Homo sapiens [1] = species: Homo sapiens; test: Inhibition of TRAP-6 (SFLLRN-NH2)-induced human gel filtered platelet aggregation (GFP).; type: functional
Homo sapiens [2] = species: Homo sapiens; test: Inhibition of alpha-thrombin-induced human gel filtered platelet aggregation (GFP).; type: functional
[3] = molecular target: T1, Proteinase-activated receptor 1 (Homo sapiens, UniProt P25116); test: Inhibition of [3H]S-(p-F-Phe)-Har-L-Har-KY-NH2 binding to a thrombin receptor (PAR-1) membrane preparation.
T1 sequence (P25116 whole entry): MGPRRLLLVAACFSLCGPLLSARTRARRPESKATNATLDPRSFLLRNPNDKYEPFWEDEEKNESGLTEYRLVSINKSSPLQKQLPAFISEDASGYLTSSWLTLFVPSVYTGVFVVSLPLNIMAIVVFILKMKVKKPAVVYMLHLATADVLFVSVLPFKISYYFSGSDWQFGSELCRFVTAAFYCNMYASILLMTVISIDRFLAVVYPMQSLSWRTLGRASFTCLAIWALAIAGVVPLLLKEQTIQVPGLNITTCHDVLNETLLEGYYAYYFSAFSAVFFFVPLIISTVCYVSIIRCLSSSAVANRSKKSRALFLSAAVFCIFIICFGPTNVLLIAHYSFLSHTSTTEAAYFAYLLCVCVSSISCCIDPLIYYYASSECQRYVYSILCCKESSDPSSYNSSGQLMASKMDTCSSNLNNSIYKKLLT

Structure (SMILES)	IC50 (Homo sapiens [1])	IC50 (Homo sapiens [2])	IC50 [3]
CNCC(=O)N[C@@H](Cc1ccc(F)cc1)c1nc(C(=O)N[C@@H](CC2CCCCC2)C(=O)N[C@@H](CCCN=C(N)N)C(=O)N[C@@H](Cc2ccccc2)C(N)=O)cs1	14 µM	41 µM	5.7 µM
CC(=O)N[C@@H](Cc1ccc(F)cc1)c1nc(C(=O)N[C@@H](CC2CCCCC2)C(=O)N[C@@H](CCCNC(=N)N)C(=O)NCc2ccccc2)c(C)o1	19 µM	18 µM	30 µM
CNCC(=O)N[C@@H](Cc1ccc(F)cc1)c1nc(C(=O)N[C@@H](CC2CCCCC2)C(=O)N[C@@H](CCCN=C(N)N)C(=O)NCc2ccccc2)co1	6.6 µM	25 µM	1.6 µM
CNCC(=O)N[C@@H](Cc1ccc(F)cc1)c1nc(C(=O)N[C@H](CC2CCCCC2)C(=O)N[C@@H](CCCNC(=N)N)C(=O)N[C@@H](Cc2ccccc2)C(N)=O)cs1	42 µM	96 µM	94 µM
CNCC(=O)N[C@@H](Cc1ccccc1)c1nc(C(=O)N[C@@H](CC2CCCCC2)C(=O)N[C@@H](CCCNC(=N)N)C(=O)NCc2ccccc2)c(C)o1	36 µM	45 µM	60 µM
NC(=O)[C@H](Cc1ccccc1)NC(=O)[C@H](CCCN=C(N)N)NC(=O)[C@H](CC1CCCCC1)NC(=O)c1csc([C@@H](N)Cc2ccc(F)cc2)n1	16 µM	28 µM	8 µM
NCC(=O)N[C@@H](Cc1ccc(F)cc1)c1nc(C(=O)N[C@@H](CC2CCCCC2)C(=O)N[C@@H](CCCN=C(N)N)C(N)=O)co1	13 µM	19 µM	6.2 µM
NCCC(=O)N[C@@H](Cc1ccc(F)cc1)c1nc(C(=O)N[C@@H](CC2CCCCC2)C(=O)N[C@@H](CCCN=C(N)N)C(=O)NCc2ccccc2)co1	36 µM	> 100 µM	6.7 µM
CC(C)C[C@H](NC(=O)[C@H](CC(C)C)NC(=O)[C@H](Cc1ccccc1)NC(=O)[C@@H](N)CO)C(=O)N[C@@H](CCCN=C(N)N)C(=O)N[C@@H](CC(N)=O)C(N)=O	0.3 µM		73 µM
Cc1oc([C@H](Cc2ccc(F)cc2)NC(=O)C(N)CN)nc1C(=O)N[C@@H](CC1CCCCC1)C(=O)N[C@@H](CCCN=C(N)N)C(=O)NCc1ccccc1 (stereo partly drawn)	25 µM	24 µM	53 µM
CNCC(=O)N[C@@H](Cc1ccc(F)cc1)c1nc(C(=O)N[C@@H](CC2CCCCC2)C(=O)N[C@@H](CCCNC(=N)N)C(=O)NCc2ccccc2)c(C)o1	18 µM	23 µM	5 µM
CNCC(=O)N[C@@H](Cc1ccc(F)cc1)c1nc(C(=O)N2CCCC(C(=O)N[C@@H](CCCNC(=N)N)C(=O)N[C@@H](Cc3ccccc3)C(N)=O)C2)cs1 (stereo partly drawn)	> 100 µM	> 100 µM	> 100 µM
CNCC(=O)N[C@@H](Cc1ccc(F)cc1)c1nc(C(=O)N[C@@H](CCCCN)C(=O)N[C@@H](CCCNC(=N)N)C(=O)NCCc2ccccc2)cs1	> 100 µM	> 100 µM	> 100 µM
CNCC(=O)N[C@@H](Cc1ccc(F)cc1)c1nc(C(=O)N[C@@H](CC2CCCCC2)C(=O)N[C@@H](CCCNC(=N)N)C(=O)NCC(C)c2ccccc2)cs1 (stereo partly drawn)	16 µM	40 µM	24 µM
CNCC(=O)N[C@@H](Cc1ccc(F)cc1)c1nc(C(=O)N[C@@H](Cc2ccccc2)C(=O)N[C@@H](CCCN=C(N)N)C(=O)NCc2ccccc2)cs1	13 µM	46 µM	24 µM
CNCC(=O)N[C@@H](Cc1ccc(F)cc1)c1nc(C(=O)N[C@@H](CC2CCCCC2)C(=O)N[C@@H](CCCNC(=N)N)C(=O)NCc2ccccc2)cs1	11 µM	27 µM	10 µM

Structure (SMILES)	IC50 (Homo sapiens [1])	IC50 (Homo sapiens [2])	IC50 [3]
CNCC(=O)N[C@@H](Cc1ccc(F)cc1)c1nc(C(=O)N[C@@H](CC2CCCCC2)C(=O)N[C@@H](CCCN=C(N)N)C(=O)NCCc2ccccc2)cs1	10 µM	27 µM	5.6 µM
NCC(=O)N[C@@H](Cc1ccc(F)cc1)c1nc(C(=O)N[C@@H](CC2CCCCC2)C(=O)N[C@@H](CCCN=C(N)N)C(=O)NCc2ccccc2)co1	10 µM	17 µM	5.4 µM
CC[C@H](C)[C@H](N)C(=O)N[C@@H](Cc1ccc(F)cc1)c1nc(C(=O)N[C@@H](CC2CCCCC2)C(=O)N[C@@H](CCCN=C(N)N)C(=O)N[C@@H](Cc2ccccc2)C(N)=O)cs1 (H-I[Phe(4-F)ψ(2,4-Thz)][Cha]RF-NH2)	4 µM	32 µM	3.9 µM
CC[C@H](C)[C@H](N)C(=O)N[C@@H](Cc1ccc(F)cc1)c1nc(C(=O)N(CC(=O)N[C@@H](CCCN=C(N)N)C(=O)N[C@@H](Cc2ccccc2)C(N)=O)Cc2ccccc2)cs1 (H-I[Phe(4-F)ψ(2,4-Thz)][Nphe]RF-NH2)	80 µM	> 100 µM	> 100 µM
CNCC(=O)N[C@@H](Cc1ccc(F)cc1)c1nc(C(=O)N[C@@H](CCCN=C(N)N)C(=O)N[C@@H](CCCN=C(N)N)C(=O)N[C@@H](Cc2ccccc2)C(N)=O)cs1 (H-[Sar][Phe(4-F)ψ(2,4-Thz)]RRF-NH2)	> 100 µM	> 100 µM	
CNCC(=O)N[C@@H](Cc1ccc(F)cc1)c1nc(C(=O)N[C@@H](CCCNC(=N)N)C(=O)N[C@@H](CCCNC(=N)N)C(=O)N[C@@H](Cc2ccccc2)C(N)=O)cs1 (H-[Sar][Phe(4-F)ψ(2,4-Thz)]RRF-NH2)			> 100 µM
CNCC(=O)N[C@@H](Cc1ccc(F)cc1)c1nc(C(=O)N[C@@H](CC2CCCCC2)C(=O)N[C@@H](CCCN=C(N)N)C(=O)N[C@@H](Cc2ccc(O)cc2)C(N)=O)cs1 (H-[Sar][Phe(4-F)ψ(2,4-Thz)][Cha]RY-NH2)	5.5 µM	45 µM	4.1 µM
CNCC(=O)N[C@@H](Cc1ccc(F)cc1)c1nc(C(=O)N[C@@H](CC2CCCCC2)C(=O)N[C@@H](CCCN=C(N)N)C(=O)N[C@@H](CC2CCCCC2)C(N)=O)cs1 (H-[Sar][Phe(4-F)ψ(2,4-Thz)][Cha]R[Cha]-NH2)	6.8 µM	46 µM	
CNCC(=O)N[C@@H](Cc1ccc(F)cc1)c1nc(C(=O)N[C@@H](CC2CCCCC2)C(=O)N[C@@H](CCCNC(=N)N)C(=O)N[C@@H](CC2CCCCC2)C(N)=O)cs1 (H-[Sar][Phe(4-F)ψ(2,4-Thz)][Cha]R[Cha]-NH2)			2.7 µM
CNCC(=O)N[C@@H](Cc1ccc(F)cc1)c1nc(C(=O)N[C@@H](CC2CCCCC2)C(=O)N[C@@H](CCCCN=C(N)N)C(=O)N[C@@H](Cc2ccccc2)C(N)=O)cs1 (H-[Sar][Phe(4-F)ψ(2,4-Thz)][Cha][hArg]F-NH2)	7.7 µM	59 µM	
CC(C)C(N)C(=O)N[C@@H](Cc1ccc(F)cc1)c1nc(C(=O)N[C@@H](CC2CCCCC2)C(=O)N[C@@H](CCCN=C(N)N)C(=O)N[C@@H](Cc2ccccc2)C(N)=O)cs1 (stereo partly drawn) (H-[ξV][Phe(4-F)ψ(2,4-Thz)][Cha]RF-NH2)	4.6 µM	22 µM	
CC(C)C(N)C(=O)N[C@@H](Cc1ccc(F)cc1)c1nc(C(=O)N[C@@H](CC2CCCCC2)C(=O)N[C@@H](CCCNC(=N)N)C(=O)N[C@@H](Cc2ccccc2)C(N)=O)cs1 (stereo partly drawn) (H-[ξV][Phe(4-F)ψ(2,4-Thz)][Cha]RF-NH2)			2.7 µM
COc1ccc(C[C@H](NC(=O)C(N)C(C)C)c2nc(C(=O)N[C@@H](CC3CCCCC3)C(=O)N[C@@H](CCCN=C(N)N)C(=O)N[C@@H](Cc3ccccc3)C(N)=O)cs2)cc1 (stereo partly drawn) (H-[ξV][X1][Cha]RF-NH2)	9.5 µM	49 µM	
COc1ccc(C[C@H](NC(=O)C(N)C(C)C)c2nc(C(=O)N[C@@H](CC3CCCCC3)C(=O)N[C@@H](CCCNC(=N)N)C(=O)N[C@@H](Cc3ccccc3)C(N)=O)cs2)cc1 (stereo partly drawn) (H-[ξV][X1][Cha]RF-NH2)			8.2 µM
CC(C)C[C@H](NC(=O)[C@H](Cc1ccc(NC(=N)N)cc1)NC(=O)[C@H](Cc1ccc(F)cc1)NC(=O)/C=C/c1ccccc1)C(=O)N[C@@H](CCCN=C(N)N)C(=O)N[C@@H](CCCN=C(N)N)C(N)=O (X2-[Phe(4-F)][Phe(4-guanidino)]LRR-NH2)	0.021 µM		0.0075 µM
